Measured values: patent US20100267561A1, “HERBICIDAL PYRIDAZINONE DERIVATIVES” (priority 2007, published 2010)

Key:
Assay type in all cases: in vivo
[1] = tested on: wild oat (Avena fatua); assay: Test B pre-/postemergence plant response
Procedure, shortened: (§1)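 Seeds were sown and sprayed preemergence, while plants at 2 to 18 cm (1- to 4-leaf stage) got postemergence sprays. Compounds were formulated in a non-phytotoxic solvent mixture with surfactant. After 13 to 15 days in a greenhouse, injury was rated visually against untreated controls, 0 (no effect) to 100 (complete control).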

[2] = tested on: wheat (Triticum aestivum); assay: Test B pre-/postemergence plant response
Procedure, shortened: as §1

[3] = tested on: soybean (Glycine max); assay: Test B pre-/postemergence plant response
Procedure, shortened: as §1

[4] = tested on: cocklebur (Xanthium strumarium); assay: Test B pre-/postemergence plant response; conditions: for Cocklebur plant response rating: 8 g ai/ha
Procedure, shortened: as §1

[5] = tested on: downy bromegrass (Bromus tectorum); assay: Test B pre-/postemergence plant response; conditions: for Bromegrass, Downy plant response rating: 8 g ai/ha
Procedure, shortened: as §1

[6] = tested on: woolly cupgrass (Eriochloa villosa); assay: Test B pre-/postemergence plant response
Procedure, shortened: as §1

[7] = tested on: velvetleaf (Abutilon theophrasti); assay: Test B pre-/postemergence plant response
Procedure, shortened: as §1

[8] = tested on: bermudagrass (Cynodon dactylon); assay: Test B pre-/postemergence plant response; conditions: for Bermudagrass plant response rating: 8 g ai/ha
Procedure, shortened: as §1

[9] = tested on: catchweed bedstraw (Galium aparine); assay: Test B pre-/postemergence plant response; conditions: Preemergence
Procedure, shortened: as §1

[10] = tested on: large crabgrass (Digitaria sanguinalis); assay: Test B pre-/postemergence plant response
Procedure, shortened: as §1

[11] = tested on: rice (Oryza sativa); assay: Test B flooded paddy test plant response
Procedure, shortened: (§2)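 Paddy-water application to 2-leaf plants in pots held under 3 cm of flooding; response is a 0–100 visual control rating against controls after 13 to 15 days, and a dash marks a missing result.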

[12] = tested on: ducksalad (Heteranthera limosa); assay: Test B flooded paddy test plant response
Procedure, shortened: as §2

[13] = tested on: barnyardgrass (Echinochloa crus-galli); assay: Test B flooded paddy test plant response
Procedure, shortened: as §2

[14] = tested on: umbrella sedge (Cyperus difformis); assay: Test B flooded paddy test plant response
Procedure, shortened: as §2

[15] = 8 g ai/ha, postemergence, 0-100 scale
[16] = Postemergence, 16 g ai/ha, scale 0 to 100
[17] = Postemergence, 31 g ai/ha, scale 0 to 100
[18] = Postemergence, 62 g ai/ha, scale 0 to 100, 0 no effect, 100 complete control
[19] = Preemergence, 31 g ai/ha, scale 0 to 100 (0 no effect, 100 complete control)
[20] = Preemergence, 62 g ai/ha, 0 to 100 scale, 0 no effect, 100 complete control
[21] = Preemergence, 8 g ai/ha, scale 0 to 100
[22] = Preemergence, 16 g ai/ha, scale 0 to 100
[23] = Preemergence, 16 g ai/ha, scale 0 to 100 (0 no effect, 100 complete control)
[24] = Preemergence, scale 0 to 100 (0 no effect, 100 complete control)
[25] = Flood (flooded paddy test), 62 g ai/ha, scale 0 to 100, 0 no effect, 100 complete control
[26] = Flood (flooded paddy test), 125 g ai/ha, scale 0 to 100, 0 no effect, 100 complete control
[27] = Flood (flooded paddy test), 250 g ai/ha, scale 0 to 100, 0 no effect, 100 complete control
[28] = Flood, 31 g ai/ha, scale 0 to 100
[29] = Preemergence, 62 g ai/ha, scale 0 to 100
[30] = Preemergence, 31 g ai/ha, 0 to 100 scale, 0 no effect, 100 complete control

Structure (SMILES): CCCC(=O)Oc1cnn(C)c(=O)c1-n1nc(-c2ccc(Cl)cc2)cc1C [Compound 56]
- Oat, Wild plant response rating [1, 15]: 5
- Plant response rating, Oat, Wild [1, 16]: 85
- Plant response rating, Oat, Wild [1, 17]: 90
- Plant response rating, Oat, Wild [1, 18]: 90
- Plant response rating, Oat, Wild [1, 19]: 60
- Plant response rating, Oat, Wild [1, 20]: 90
- Oat, Wild plant response rating [1, 21]: 0
- Oat, Wild plant response rating [1, 22]: 50
- Wheat plant response rating [2, 15]: 5
- Plant response rating, Wheat [2, 16]: 65
- Plant response rating, Wheat [2, 17]: 80
- Plant response rating, Wheat [2, 18]: 90
- Plant response rating, Wheat [2, 19]: 35
- Plant response rating, Wheat [2, 20]: 80
- Wheat plant response rating [2, 22]: 10
- Soybean plant response rating [3, 15]: 0
- Plant response rating, Soybean [3, 16]: 0
- Plant response rating, Soybean [3, 17]: 0
- Plant response rating, Soybean [3, 18]: 0
- Plant response rating, Soybean [3, 20]: 0
- Soybean plant response rating [3, 21]: 0
- Soybean plant response rating [3, 22]: 0
- Cocklebur plant response rating ([4]; postemergence, 0-100 scale): 0
- Plant response rating, Cocklebur [4, 16]: 0
- Plant response rating, Cocklebur [4, 17]: 0
- Plant response rating, Cocklebur [4, 18]: 0
- Plant response rating, Cocklebur [4, 23]: 0
- Plant response rating, Cocklebur [4, 19]: 0
- Plant response rating, Cocklebur [4, 20]: 0
- Cocklebur plant response rating ([4]; Preemergence, scale 0 to 100): 0
- Bromegrass, Downy plant response rating ([5]; postemergence, 0-100 scale): 0
- Plant response rating, Bromegrass, Downy [5, 16]: 0
- Plant response rating, Bromegrass, Downy [5, 17]: 0
- Plant response rating, Bromegrass, Downy [5, 18]: 0
- Plant response rating, Bromegrass, Downy [5, 23]: 20
- Plant response rating, Bromegrass, Downy [5, 19]: 45
- Plant response rating, Bromegrass, Downy [5, 20]: 75
- Bromegrass, Downy plant response rating ([5]; Preemergence, scale 0 to 100): 0
- Cupgrass, Woolly plant response rating [6, 15]: 95
- Plant response rating, Cupgrass, Woolly [6, 16]: 100
- Plant response rating, Cupgrass, Woolly [6, 17]: 100
- Plant response rating, Cupgrass, Woolly [6, 18]: 100
- Plant response rating, Cupgrass, Woolly [6, 19]: 100
- Plant response rating, Cupgrass, Woolly [6, 20]: 100
- Cupgrass, Woolly plant response rating [6, 21]: 0
- Cupgrass, Woolly plant response rating [6, 22]: 80
- Velvetleaf plant response rating [7, 15]: 0
- Plant response rating, Velvetleaf [7, 16]: 0
- Plant response rating, Velvetleaf [7, 17]: 0
- Plant response rating, Velvetleaf [7, 18]: 0
- Plant response rating, Velvetleaf [7, 19]: 0
- Plant response rating, Velvetleaf [7, 20]: 0
- Velvetleaf plant response rating [7, 21]: 0
- Velvetleaf plant response rating [7, 22]: 0
- Bermudagrass plant response rating ([8]; postemergence, 0-100 scale): 65
- Plant response rating, Bermudagrass [8, 16]: 70
- Plant response rating, Bermudagrass [8, 17]: 95
- Plant response rating, Bermudagrass [8, 18]: 100
- Bermudagrass plant response rating [8, 24]: 85
- Plant response rating, Bermudagrass [8, 23]: 100
- Plant response rating, Bermudagrass [8, 19]: 100
- Plant response rating, Bermudagrass [8, 20]: 100
- Plant response rating, Galium ([9]; 31 g ai/ha, scale 0 to 100 (0 no effect, 100 complete control)): 0
- Plant response rating, Galium ([9]; 62 g ai/ha, 0 to 100 scale, 0 no effect, 100 complete control): 0
- Galium plant response rating ([9]; 8 g ai/ha, scale 0 to 100): 0
- Galium plant response rating ([9]; 16 g ai/ha, scale 0 to 100): 0
- Crabgrass, Large plant response rating [10, 15]: 65
- Plant response rating, Crabgrass, Large [10, 16]: 85
- Plant response rating, Crabgrass, Large [10, 17]: 95
- Plant response rating, Crabgrass, Large [10, 18]: 100
- Plant response rating, Crabgrass, Large [10, 19]: 100
- Plant response rating, Crabgrass, Large [10, 20]: 100
- Crabgrass, Large plant response rating [10, 21]: 0
- Crabgrass, Large plant response rating [10, 22]: 60
- Plant response rating, Rice [11, 25]: 0
- Plant response rating, Rice [11, 26]: 0
- Plant response rating, Rice [11, 27]: 10
- Plant response rating, Rice [11, 28]: 0
- Plant response rating, Ducksalad [12, 25]: 0
- Plant response rating, Ducksalad [12, 26]: 40
- Plant response rating, Ducksalad [12, 27]: 75
- Plant response rating, Ducksalad [12, 28]: 0
- Plant response rating, Barnyardgrass [13, 25]: 0
- Plant response rating, Barnyardgrass [13, 26]: 20
- Plant response rating, Barnyardgrass [13, 27]: 60
- Plant response rating, Barnyardgrass [13, 28]: 0
- Plant response rating, Sedge, Umbrella [14, 25]: 75
- Plant response rating, Sedge, Umbrella [14, 26]: 85
- Plant response rating, Sedge, Umbrella [14, 27]: 85
- Plant response rating, Sedge, Umbrella [14, 28]: 70

Structure (SMILES): Cc1cc(-c2ccc(Cl)cc2)nn1-c1c(OC(=O)c2cccs2)cnn(C)c1=O [Compound 52]
- Oat, Wild plant response rating [1, 15]: 50
- Plant response rating, Oat, Wild [1, 16]: 90
- Plant response rating, Oat, Wild [1, 17]: 95
- Plant response rating, Oat, Wild [1, 18]: 100
- Plant response rating, Oat, Wild [1, 19]: 70
- Plant response rating, Oat, Wild [1, 29]: 90
- Oat, Wild plant response rating [1, 21]: 0
- Oat, Wild plant response rating [1, 22]: 30
- Wheat plant response rating [2, 15]: 0
- Plant response rating, Wheat [2, 16]: 50
- Plant response rating, Wheat [2, 17]: 70
- Plant response rating, Wheat [2, 18]: 85
- Plant response rating, Wheat [2, 19]: 20
- Plant response rating, Wheat [2, 20]: 50
- Wheat plant response rating [2, 21]: 0
- Wheat plant response rating [2, 22]: 0
- Soybean plant response rating [3, 15]: 0
- Plant response rating, Soybean [3, 16]: 0
- Plant response rating, Soybean [3, 17]: 0
- Plant response rating, Soybean [3, 18]: 0
- Plant response rating, Soybean [3, 29]: 0
- Soybean plant response rating [3, 21]: 0
- Soybean plant response rating [3, 22]: 0
- Cocklebur plant response rating ([4]; postemergence, 0-100 scale): 0
- Plant response rating, Cocklebur [4, 16]: 0
- Plant response rating, Cocklebur [4, 17]: 0
- Plant response rating, Cocklebur [4, 18]: 0
- Plant response rating, Cocklebur [4, 23]: 0
- Plant response rating, Cocklebur [4, 30]: 0
- Plant response rating, Cocklebur [4, 29]: 0
- Cocklebur plant response rating ([4]; Preemergence, scale 0 to 100): 0
- Bromegrass, Downy plant response rating ([5]; postemergence, 0-100 scale): 30
- Plant response rating, Bromegrass, Downy [5, 16]: 30
- Plant response rating, Bromegrass, Downy [5, 17]: 40
- Plant response rating, Bromegrass, Downy [5, 18]: 70
- Plant response rating, Bromegrass, Downy [5, 23]: 35
- Plant response rating, Bromegrass, Downy [5, 30]: 35
- Plant response rating, Bromegrass, Downy [5, 29]: 80
- Bromegrass, Downy plant response rating ([5]; Preemergence, scale 0 to 100): 0
- Cupgrass, Woolly plant response rating [6, 15]: 75
- Plant response rating, Cupgrass, Woolly [6, 16]: 90
- Plant response rating, Cupgrass, Woolly [6, 17]: 95
- Plant response rating, Cupgrass, Woolly [6, 18]: 100
- Plant response rating, Cupgrass, Woolly [6, 30]: 0
- Plant response rating, Cupgrass, Woolly [6, 29]: 0
- Cupgrass, Woolly plant response rating [6, 21]: 0
- Cupgrass, Woolly plant response rating [6, 22]: 0
- Velvetleaf plant response rating [7, 15]: 0
- Plant response rating, Velvetleaf [7, 16]: 0
- Plant response rating, Velvetleaf [7, 17]: 0
- Plant response rating, Velvetleaf [7, 18]: 0
- Plant response rating, Velvetleaf [7, 19]: 0
- Plant response rating, Velvetleaf [7, 20]: 0
- Velvetleaf plant response rating [7, 21]: 0
- Velvetleaf plant response rating [7, 22]: 0
- Bermudagrass plant response rating ([8]; postemergence, 0-100 scale): 40
- Plant response rating, Bermudagrass [8, 16]: 98
- Plant response rating, Bermudagrass [8, 17]: 100
- Plant response rating, Bermudagrass [8, 18]: 100
- Bermudagrass plant response rating [8, 24]: 0
- Plant response rating, Bermudagrass [8, 23]: 0
- Plant response rating, Bermudagrass [8, 30]: 0
- Plant response rating, Bermudagrass [8, 29]: 85
- Plant response rating, Galium ([9]; 62 g ai/ha, scale 0 to 100): 0
- Galium plant response rating ([9]; 8 g ai/ha, scale 0 to 100): 0
- Galium plant response rating ([9]; 16 g ai/ha, scale 0 to 100): 0
- Crabgrass, Large plant response rating [10, 15]: 65
- Plant response rating, Crabgrass, Large [10, 16]: 85
- Plant response rating, Crabgrass, Large [10, 17]: 100
- Plant response rating, Crabgrass, Large [10, 18]: 100
- Plant response rating, Crabgrass, Large [10, 30]: 0
- Plant response rating, Crabgrass, Large [10, 29]: 0
- Crabgrass, Large plant response rating [10, 21]: 0
- Crabgrass, Large plant response rating [10, 22]: 0
- Plant response rating, Rice [11, 25]: 10
- Plant response rating, Rice [11, 27]: 60
- Plant response rating, Ducksalad [12, 25]: 0
- Plant response rating, Ducksalad [12, 27]: 0
- Plant response rating, Barnyardgrass [13, 25]: 15
- Plant response rating, Barnyardgrass [13, 27]: 75
- Plant response rating, Sedge, Umbrella [14, 25]: 0
- Plant response rating, Sedge, Umbrella [14, 27]: 0
